Laboratory results taken from patent EP0089901A1, “New 2-oxo-1-pyrrolidineacetic acid esters, their methods of production and therapeutic compositions containing the same” (PRODES S.A., priority 1982, dated 1983).

Assays:
anesthetized dogs = experiment: Electromagnetic blood flow measurement (vertebral/cerebral blood flow); format: in vivo; conditions: vertebral blood flow
Method: After orotraqueal intubation, artificial respiration with normal air was instituted using a Manley Pulmovent respirator. The correct ventilation of the dogs was checked after all the surgical procedures by determining the p02, pC02, and pH in arterial blood samples, as well as several times during the experiment by means of an Astrup apparatus. Blood pressure was measured in left saphenous artery by means of a Bell & Howell pressure transducer, and the heart rate by means of a Beckman ECG device. Recordings were made on an ink-writing Beckman polygraph. Left saphenous vein and right saphenous artery were cannulated with polyethylene catheters for drug administration and blood collection respectively.
Vertebral blood flow was measured by a non-cannulating electro-magnetic flowmeter (Carolina Medical Electronics) placed in the vertebral artery.
The Carolina digital flowmeter was connected to an Omniscribe Houston Instruments plotter.
Piracetam and nicotinic acid were used as control drugs.

animals [1] = experiment: Unspecific protection against lethality: hypoxia-hypobara (decompression), survival time; format: in vivo; conditions: survival time under decompression
Source text: We have chosen the hypoxia-hypobara : the decompression kills the animals, because of the lack of 02.

mouse = experiment: Unspecific protection against lethality: gasping time after quick decapitation; format: in vivo; conditions: gasping time after decapitation of mouse
Source text: The second trial is the quick decapitation of mouse. The head has a typical mandibular movement, known as gasping, as searching the breathing air.

animals [2] = experiment: Unspecific protection against lethality: anoxia by CNK, survival time; format: in vivo; conditions: survival time after CNK
[3] = LD50 of representative compounds; conditions: in vivo
Source text: LD50 of representative compounds included in Table III.

Structure (SMILES): COc1ccc(Cc2nccc3cc(OC)c(OC)cc23)cc1OC [Papaverine]
- EFFECT (anesthetized dogs; DOSE 0.5 mg/kg): Active

Structure (SMILES): CCC(C(=O)OC1CC(C)CC(C)(C)C1)N1CCCC1=O (stereo not drawn) [cis 3,3,5-trimethylcyclohexyl 2-(2-oxo-l-pyrrolidinyl)butyrate]
- HYPOXIA HYPOBARA (animals [1]; DOSE 500mg/kg): Active
- GASPING (mouse; DOSE 500mg/kg): Very active
- EFFECT (anesthetized dogs; DOSE 0.5 mg/kg): Active
- ANOXIA BY CNK (animals [2]; DOSE 500mg/kg): Very active
- LD50 [3]: 2850 mg/kg

Structure (SMILES): CC1CC(OC(=O)CN2CCCC2=O)CC(C)(C)C1 (mixture of isomers) [cis/trans 3,3,5-trimethylcyclohexyl 2-oxo-l-pyrrolidineacetate]
- HYPOXIA HYPOBARA (animals [1]; DOSE 500mg/kg): Active
- GASPING (mouse; DOSE 500mg/kg): Very active
- EFFECT (anesthetized dogs; DOSE 1 mg/kg): Active
- ANOXIA BY CNK (animals [2]; DOSE 500mg/kg): Very active
- LD50 [3]: 3170 mg/kg

Structure (SMILES): O=C(O)c1cccnc1 [Nicotinic acid]
- EFFECT (anesthetized dogs; no dose given): No effect

Structure (SMILES): NC(=O)CN1CCCC1=O [Piracetam, 2-oxo-1-pyrrolidineacetamide, reference compound]
- HYPOXIA HYPOBARA (animals [1]; DOSE 1000mg/kg): No effect
- GASPING (mouse; DOSE 1000mg/kg): No effect
- EFFECT (anesthetized dogs; no dose given): No effect
- ANOXIA BY CNK (animals [2]; DOSE 1000mg/kg): No effect

Structure (SMILES): O=C1NC(=O)C(c2ccccc2)(c2ccccc2)N1 [Difenilhydantoine, reference compound]
- HYPOXIA HYPOBARA (animals [1]; DOSE 100mg/kg): Active
- GASPING (mouse; DOSE 100mg/kg): Very active
- ANOXIA BY CNK (animals [2]; DOSE 100mg/kg): Active
